Data set [1] is described as follows: Release profile of memantine and atorvastatin combination (cumulative fraction released). Type of data set: physicochemical. The settings on record: released from formulation matrix, USP II Paddle, water. From the text:
The cumulative fraction is the amount of drug substance released from the formulation matrix to the serum or gut environment (e.g., U.S. Pat. No. 4,839,177) or as measured with a USP II Paddle system using water as the dissolution medium.

For data set [2] the following is noted: five doses at about 0.25 to about 1 mg/kg intravenous, 14 day interval; cited from earlier work.

`CC(C)c1c(C(=O)Nc2ccccc2)c(-c2ccccc2)c(-c2ccc(F)cc2)n1CC[C@@H](O)C[C@@H](O)CC(=O)O` [ATORVASTATIN, atorvastatin]: the cum. fraction in data set [1] (Time 1) amounted to 0.15; in data set [1] (Time 2), 0.30; in data set [1] (Time 4) it was 0.45; in data set [1] (Time 8), 0.60; in data set [1] (Time 12) it was 0.75; in data set [1] (Time 16), 0.90. Also, the figures for the cum. fraction in data set [1] (Time 20) and in data set [1] (Time 24) were 0.98 and 0.99, respectively.
As for “daclizumab: multiple sclerosis agent daclizumab (ZENAPAX), given intravenously”, in data set [2], the Peak serum concentrations is 21 to 32 µg/mL.
